In patent US6664069B1, “Use of GABAB receptor agonists in the screening of compounds which are reflux inhibitors” (AstraZeneca AB, priority 1996, dated 2003):

System: transient lower esophageal sphincter relaxations (TLESR)
Test: Effect of GABAB receptor agonists on TLESR in dog after nutrient infusion and air insufflation
Assay type: in vivo
Details: for TLESR % of control at 90 min / TLESR % of control at 45 min: mean ± SEM; for TLESR % of control at 45 min: first 45 min
Experimental: Adult Labrador retriever dogs of both sexes (5 males, 3 females) weighing 20-30 kg were used. A cervical esophagostomy was formed to allow intubation. After a recovery period, the dogs were used in control experiments until a stable and reliable control response had been achieved. The dogs were used in other experiments before they were given the GABAB receptor agonists, but they were always allowed a wash-out period of at least two days during which time no drugs were administered. Every fourth experiment on each dog was a control experiment to ensure stability and reproducibility of the results.
The experiments were started at about 8 a.m. at which time the animals had been fasting for approximately 17 hrs. The dog was placed in a Pavlov stand to which it had been accustomed previously. A thin silicone catheter with a distal opening was introduced retrogradely through the esophagostomy into the pharynx to record swallowing. The catheter was perfused with air at approximately 2 ml/min. A multilumen assembly was positioned so that pressures could be recorded in the proximal stomach, LES and at four sites in the distal esophagus. The assembly was fitted with a 6 cm long sleeve to measure LES pressure reliably. Gastric and LES channels were perfused with distilled degassed water at 0.45 ml/min and esophageal channels at 0.1 ml/min. A low-compliance pneumohydraulic pump was used to achieve optimal perfusion conditions. Intraluminal pressures were measured with external pressure transducers. The signals were amplified and acquired using LabWindows/CVI software (version 3.1). Pressure calibrations were done at 0 and 100 mm Hg with the multilumen assemblies placed at a level slightly below the pressure transducers. The dog was positioned so that the average intragastric (i.g.) pressure approximated 0 mm Hg. An antimony pH-electrode was positioned 3 cm orad to the upper margin of the LES, and the signals were acquired as described above. Analysis of acquired signals was made using LabWindows software.
Baseline measurement was done for at least 10 min, and then vehicle (0.9% NaCl; 0.5 ml/kg) or a GABAB receptor agonist was given i.v. over 2 min. Ten min after the completion of the administration, nutrient was infused i.g. via the multilumen assembly at a rate of 100 ml/min (30 ml/kg). GABA was given as a continuous i.v. infusion which commenced 10 min before nutrient administration; and R, S,-baclofen was in some cases given intragastrically 30 min before nutrient. The nutrient contained 10% peptone (w/v), 5% Intralipid (v/v) and 5% D-glucose (w/v) and was acidified to pH 3.0 with HCl. Immediately after the infusion, air was insufflated at 40 ml/min to make up a total time of 90 min starting from the commencement of nutrient infusion. The dog was then extubated and a baseline measurement was done to ensure that no drift had occurred.
A TLESR was identified by the following criteria; The difference between LES and i.g. pressures was less than 2 mm Hg, the duration was more than 0.5 s and the relaxation was not triggered by primary peristalsis (i.e. by a pharyngeal signal). The rate of pressure drop was more than 10 mm Hg/s. Most, but not all, TLESR could also be detected aurally by a characteristic noise at the esophagostomy (i.e. belching). The total number of TLESR was calculated for the first 45 min period and entire experiment (90 min). The effect of GABAB receptor agonists was expressed relative to individual control data (n≧5). Each agonist was tested in at least two different dogs.

[1] = 1.5 mg/kg intragastric admin. 30 min before nutrient
[2] = 1.8 mg/kg as intravenous infusion over 100 min
[3] = 5.4 mg/kg as intravenous infusion over 100 min

| SMILES | TLESR % of control at 90 min (0.3 mg/kg intravenously) | TLESR % of control at 45 min (0.3 mg/kg intravenously) | TLESR % of control at 90 min (1.5 mg/kg intravenously) | TLESR % of control at 45 min (1.5 mg/kg intravenously) | TLESR % of control at 90 min (0.03 mg/kg intravenously) | TLESR % of control at 45 min (0.03 mg/kg intravenously) | also measured |
| --- | --- | --- | --- | --- | --- | --- | --- |
| NCC(CC(=O)O)c1ccc(Cl)cc1 (racemic) [R, S-baclofen, 4-amino-3-(4-chlorophenyl)butanoic acid] | 66 ± 8 % of control | 47 ± 6 % of control | 43 ± 19 % of control | 11 ± 6 % of control |  |  | TLESR % of control at 90 min [1]: 54 ± 12 % of control; TLESR % of control at 45 min [1]: 12 ± 6 % of control; behavioural side effects (high R,S-baclofen dose, disappeared approximately one hour after the administration): some sedation |
| CP(=O)(O)C[C@@H](O)CN [(3-amino-2-(S)-hydroxypropyl)methylphosphinic acid] | 38 ± 6 % of control | 0 ± 0 % of control |  |  | 65 ± 10 % of control | 53 ± 7 % of control |  |
| CP(=O)(O)CCCN [(3-aminopropyl)methylphosphinic acid] |  |  |  |  | 50 ± 17 % of control | 25 ± 4 % of control | TLESR % of control at 90 min (0.003 mg/kg intravenously): 76 ± 5 % of control; TLESR % of control at 45 min (0.003 mg/kg intravenously): 57 ± 12 % of control; TLESR % of control at 90 min (0.01 mg/kg intravenously): 39 ± 7 % of control; TLESR % of control at 45 min (0.01 mg/kg intravenously): 32 ± 8 % of control; TLESR % of control at 90 min (0.1 mg/kg intravenously): 33 ± 9 % of control; TLESR % of control at 45 min (0.1 mg/kg intravenously): 5 ± 5 % of control |
| NC[C@@H](CC(=O)O)c1ccc(Cl)cc1 [S-baclofen] |  |  | 92 ± 10 % of control | 76 ± 10 % of control |  |  |  |
| NCCCC(=O)O [GABA, 4-aminobutanoic acid] |  |  |  |  |  |  | TLESR % of control at 90 min [2]: 61 ± 3 % of control; TLESR % of control at 45 min [2]: 62 ± 2 % of control; TLESR % of control at 90 min [3]: 54 ± 10 % of control; TLESR % of control at 45 min [3]: 57 ± 6 % of control |
| NC[C@H](CC(=O)O)c1ccc(Cl)cc1 [R-baclofen] | 40 ± 11 % of control | 36 ± 10 % of control |  |  |  |  |  |
